# Source: US20250243196A1, “CITRON KINASE INHIBITORS” (The Cleveland Clinic Foundation, priority 2021, published 2025)
# How the values were obtained:
# Test in all cases: KinaseProfiler panel
# Format in all cases: biochemical
# Details in all cases: activity remaining
# [1] = biological target: MLK1(h) (Homo sapiens (Human), UniProt P80192); design: dose or concentration left out as unconfirmed
# [2] = biological target: PKCζ(h) (Homo sapiens (Human), UniProt Q05513); design: dose or concentration left out as unconfirmed
# [3] = biological target: PI3KC2a(h) (Homo sapiens (Human), UniProt O00443); design: dose or concentration left out as unconfirmed
# [4] = biological target: LRRK2(h) (Homo sapiens (Human), UniProt Q5S007); design: dose or concentration left out as unconfirmed
# [5] = biological target: WNK3(h) (Homo sapiens (Human), UniProt Q9BYP7); design: dose or concentration left out as unconfirmed
# [6] = biological target: ChaK1(h) (Homo sapiens (Human), UniProt Q96QT4); design: dose or concentration left out as unconfirmed
# [7] = biological target: TSSK4(h) (Homo sapiens (Human), UniProt Q6SA08); design: dose or concentration left out as unconfirmed
# TSSK4(h), sequence (Q6SA08 whole entry): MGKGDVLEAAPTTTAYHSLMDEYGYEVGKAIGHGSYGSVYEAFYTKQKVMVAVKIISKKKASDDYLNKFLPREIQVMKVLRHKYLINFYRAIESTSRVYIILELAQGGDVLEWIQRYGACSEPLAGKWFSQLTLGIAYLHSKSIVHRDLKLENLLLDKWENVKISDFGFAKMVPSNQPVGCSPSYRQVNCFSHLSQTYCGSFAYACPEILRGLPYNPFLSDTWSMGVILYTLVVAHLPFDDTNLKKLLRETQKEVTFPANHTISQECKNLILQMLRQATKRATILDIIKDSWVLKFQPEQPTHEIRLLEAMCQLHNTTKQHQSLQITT
# [8] = biological target: A-Raf(h) (Homo sapiens (Human), UniProt P10398); design: dose or concentration left out as unconfirmed
# [9] = biological target: CaMKK2(h) (Homo sapiens (Human), UniProt Q96RR4); design: dose or concentration left out as unconfirmed
# CaMKK2(h), sequence (Q96RR4 whole entry): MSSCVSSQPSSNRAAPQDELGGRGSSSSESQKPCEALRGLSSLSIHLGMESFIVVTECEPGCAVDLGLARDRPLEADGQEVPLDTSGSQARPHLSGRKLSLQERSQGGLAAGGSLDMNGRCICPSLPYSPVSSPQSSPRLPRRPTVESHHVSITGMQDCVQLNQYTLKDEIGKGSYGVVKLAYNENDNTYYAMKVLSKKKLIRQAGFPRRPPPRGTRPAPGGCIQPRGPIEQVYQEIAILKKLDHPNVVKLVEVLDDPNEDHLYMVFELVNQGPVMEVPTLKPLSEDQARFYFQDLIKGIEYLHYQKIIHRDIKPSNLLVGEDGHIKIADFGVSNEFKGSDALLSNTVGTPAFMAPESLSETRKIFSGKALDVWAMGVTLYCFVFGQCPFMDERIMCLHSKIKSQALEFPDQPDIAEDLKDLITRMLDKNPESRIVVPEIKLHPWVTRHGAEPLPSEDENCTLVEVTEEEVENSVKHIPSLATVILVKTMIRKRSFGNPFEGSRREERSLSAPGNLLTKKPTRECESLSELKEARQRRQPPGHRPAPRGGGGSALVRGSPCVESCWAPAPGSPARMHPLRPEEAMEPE
# [10] = biological target: PAK2(h) (Homo sapiens (Human), UniProt Q13177); design: dose or concentration left out as unconfirmed
# [11] = biological target: MSSK1(h) (Homo sapiens (Human), UniProt Q9UPE1)
# MSSK1(h), sequence (Q9UPE1 whole entry): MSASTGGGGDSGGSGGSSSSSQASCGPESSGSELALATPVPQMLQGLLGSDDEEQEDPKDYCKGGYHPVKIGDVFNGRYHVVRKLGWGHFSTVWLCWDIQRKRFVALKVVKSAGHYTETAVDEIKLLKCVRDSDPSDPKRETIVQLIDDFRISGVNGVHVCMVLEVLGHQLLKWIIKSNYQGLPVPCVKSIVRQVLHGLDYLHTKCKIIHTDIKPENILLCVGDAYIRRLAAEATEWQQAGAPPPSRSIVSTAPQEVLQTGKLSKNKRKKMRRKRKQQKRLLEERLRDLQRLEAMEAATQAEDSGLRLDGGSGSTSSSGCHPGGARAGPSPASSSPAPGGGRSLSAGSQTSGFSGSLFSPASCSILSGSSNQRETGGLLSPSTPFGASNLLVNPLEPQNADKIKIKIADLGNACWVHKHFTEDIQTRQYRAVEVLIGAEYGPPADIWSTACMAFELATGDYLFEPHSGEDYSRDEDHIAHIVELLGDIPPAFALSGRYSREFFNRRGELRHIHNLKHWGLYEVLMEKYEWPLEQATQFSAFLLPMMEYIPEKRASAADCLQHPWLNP
# [12] = biological target: LIMK2(h) (Homo sapiens (Human), UniProt P53671); design: dose or concentration left out as unconfirmed
# [13] = biological target: FGFR1(h) (Homo sapiens (Human), UniProt P11362); design: dose or concentration left out as unconfirmed
# [14] = biological target: PIP4K2a(h) (Homo sapiens (Human), UniProt P48426); design: dose or concentration left out as unconfirmed
# [15] = biological target: JNK1α1(h) (Homo sapiens (Human), UniProt P45983); design: dose or concentration left out as unconfirmed
# JNK1α1(h), sequence (P45983 other isoform, or with tags, fused parts or gaps): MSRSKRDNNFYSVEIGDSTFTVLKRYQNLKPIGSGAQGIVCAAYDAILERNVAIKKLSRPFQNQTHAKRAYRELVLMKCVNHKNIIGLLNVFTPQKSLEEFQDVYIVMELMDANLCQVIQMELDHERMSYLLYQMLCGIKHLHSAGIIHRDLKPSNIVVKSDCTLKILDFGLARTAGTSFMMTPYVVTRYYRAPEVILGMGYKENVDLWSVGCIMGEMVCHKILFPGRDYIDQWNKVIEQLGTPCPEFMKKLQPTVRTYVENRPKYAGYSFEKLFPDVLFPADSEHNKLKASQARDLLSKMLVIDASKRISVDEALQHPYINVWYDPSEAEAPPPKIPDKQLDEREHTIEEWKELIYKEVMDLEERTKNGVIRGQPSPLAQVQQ
# [16] = biological target: SLK(h) (Homo sapiens (Human), UniProt Q9H2G2); design: dose or concentration left out as unconfirmed
# [17] = biological target: Syk(h) (Homo sapiens (Human), UniProt P43405); design: dose or concentration left out as unconfirmed
# [18] = biological target: TLK2(h) (Homo sapiens (Human), UniProt Q86UE8)
# [19] = biological target: Pyk2(h) (Homo sapiens (Human), UniProt Q14289); design: dose or concentration left out as unconfirmed
# [20] = biological target: Rsk4(h) (Homo sapiens (Human), UniProt Q9UK32)
# [21] = biological target: CDK5/p25(h) (Homo sapiens (Human), UniProt Q00535); design: dose or concentration left out as unconfirmed
# [22] = biological target: mTOR/FKBP12(h) (Homo sapiens (Human), UniProt P42345); design: dose or concentration left out as unconfirmed
# mTOR/FKBP12(h), sequence (P42345 1362-2549): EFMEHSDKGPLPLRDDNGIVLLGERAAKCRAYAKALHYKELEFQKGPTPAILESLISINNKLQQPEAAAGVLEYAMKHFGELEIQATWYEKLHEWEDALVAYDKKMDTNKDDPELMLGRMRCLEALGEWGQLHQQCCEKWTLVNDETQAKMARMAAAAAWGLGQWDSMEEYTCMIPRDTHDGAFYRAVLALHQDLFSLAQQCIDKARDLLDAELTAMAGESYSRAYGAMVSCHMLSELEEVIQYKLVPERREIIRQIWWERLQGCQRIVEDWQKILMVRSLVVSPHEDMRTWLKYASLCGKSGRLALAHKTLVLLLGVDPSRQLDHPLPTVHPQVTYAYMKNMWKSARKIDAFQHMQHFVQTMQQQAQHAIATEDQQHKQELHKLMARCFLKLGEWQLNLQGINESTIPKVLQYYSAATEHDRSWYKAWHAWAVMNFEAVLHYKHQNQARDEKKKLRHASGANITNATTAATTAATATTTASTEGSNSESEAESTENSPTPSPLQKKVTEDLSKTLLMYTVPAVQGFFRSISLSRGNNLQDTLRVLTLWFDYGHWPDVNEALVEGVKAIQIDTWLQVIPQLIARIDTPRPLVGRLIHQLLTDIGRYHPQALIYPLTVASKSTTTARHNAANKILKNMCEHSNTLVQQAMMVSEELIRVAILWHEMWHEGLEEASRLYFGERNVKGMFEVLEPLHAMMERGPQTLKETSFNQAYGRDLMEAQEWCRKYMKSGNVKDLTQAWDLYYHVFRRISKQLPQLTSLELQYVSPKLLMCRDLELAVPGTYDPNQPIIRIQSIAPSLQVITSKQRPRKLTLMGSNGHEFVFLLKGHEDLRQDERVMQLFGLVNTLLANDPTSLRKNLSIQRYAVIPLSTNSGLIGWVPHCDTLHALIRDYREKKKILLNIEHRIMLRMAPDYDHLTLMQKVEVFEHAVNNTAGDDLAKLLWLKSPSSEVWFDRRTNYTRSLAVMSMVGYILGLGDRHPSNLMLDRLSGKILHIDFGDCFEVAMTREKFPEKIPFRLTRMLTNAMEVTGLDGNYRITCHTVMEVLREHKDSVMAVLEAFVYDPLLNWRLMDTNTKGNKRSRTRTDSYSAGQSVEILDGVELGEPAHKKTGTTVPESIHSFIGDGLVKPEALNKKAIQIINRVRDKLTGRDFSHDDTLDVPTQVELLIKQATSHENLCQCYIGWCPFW
# [23] = biological target: ErbB4(h) (Homo sapiens (Human), UniProt Q15303); design: dose or concentration left out as unconfirmed
# [24] = biological target: Rsk3(h) (Homo sapiens (Human), UniProt Q15349); design: dose or concentration left out as unconfirmed
# [25] = biological target: LKB1(h) (Homo sapiens (Human), UniProt Q15831); design: dose or concentration left out as unconfirmed
# [26] = biological target: PKG1α(h) (Homo sapiens (Human), UniProt Q13976); design: dose or concentration left out as unconfirmed
# [27] = biological target: Lck(h) (Homo sapiens (Human), UniProt P06239); design: dose or concentration left out as unconfirmed
# [28] = biological target: EphA4(h) (Homo sapiens (Human), UniProt P54764); design: dose or concentration left out as unconfirmed
# [29] = biological target: STK39(h) (Homo sapiens (Human), UniProt Q9UEW8)
# [30] = biological target: SRPK2(h) (Homo sapiens (Human), UniProt P78362); design: dose or concentration left out as unconfirmed
# SRPK2(h), sequence (P78362 whole entry): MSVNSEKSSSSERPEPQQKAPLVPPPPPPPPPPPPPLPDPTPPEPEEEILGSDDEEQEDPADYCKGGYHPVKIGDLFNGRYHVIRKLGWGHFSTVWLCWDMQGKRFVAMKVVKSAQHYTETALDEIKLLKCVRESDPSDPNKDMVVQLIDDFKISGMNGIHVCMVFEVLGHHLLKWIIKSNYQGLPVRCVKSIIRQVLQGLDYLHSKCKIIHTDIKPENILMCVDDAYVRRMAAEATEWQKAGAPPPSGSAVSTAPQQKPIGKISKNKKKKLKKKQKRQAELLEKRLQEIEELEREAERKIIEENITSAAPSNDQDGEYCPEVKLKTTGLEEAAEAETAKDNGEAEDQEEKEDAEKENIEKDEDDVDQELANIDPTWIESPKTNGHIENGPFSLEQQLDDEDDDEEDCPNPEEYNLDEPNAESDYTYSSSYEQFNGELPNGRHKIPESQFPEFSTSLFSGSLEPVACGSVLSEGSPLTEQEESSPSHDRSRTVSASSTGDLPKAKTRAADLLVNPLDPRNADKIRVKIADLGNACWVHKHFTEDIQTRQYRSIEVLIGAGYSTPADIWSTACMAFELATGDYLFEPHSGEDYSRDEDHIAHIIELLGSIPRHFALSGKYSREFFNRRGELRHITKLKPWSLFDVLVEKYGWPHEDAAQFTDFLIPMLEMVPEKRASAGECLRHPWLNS
# [31] = biological target: GSK3α(h) (Homo sapiens (Human), UniProt P49840); design: dose or concentration left out as unconfirmed
# GSK3α(h), sequence (P49840 whole entry): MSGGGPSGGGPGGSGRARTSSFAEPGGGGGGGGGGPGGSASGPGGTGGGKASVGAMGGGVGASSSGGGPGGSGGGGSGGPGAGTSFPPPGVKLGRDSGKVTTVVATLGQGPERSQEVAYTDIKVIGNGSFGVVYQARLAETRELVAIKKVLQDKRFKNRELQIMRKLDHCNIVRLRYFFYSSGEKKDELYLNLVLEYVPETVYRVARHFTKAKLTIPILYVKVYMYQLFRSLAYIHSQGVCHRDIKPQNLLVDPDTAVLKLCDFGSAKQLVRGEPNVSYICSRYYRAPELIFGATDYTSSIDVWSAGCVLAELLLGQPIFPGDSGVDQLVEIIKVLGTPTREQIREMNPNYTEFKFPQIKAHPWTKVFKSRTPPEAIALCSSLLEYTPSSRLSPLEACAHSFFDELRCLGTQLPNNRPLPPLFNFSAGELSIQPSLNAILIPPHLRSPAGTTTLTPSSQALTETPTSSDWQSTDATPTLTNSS
# [32] = biological target: PTK5(h) (Homo sapiens (Human), UniProt P42685); design: dose or concentration left out as unconfirmed
# PTK5(h), sequence (P42685 whole entry): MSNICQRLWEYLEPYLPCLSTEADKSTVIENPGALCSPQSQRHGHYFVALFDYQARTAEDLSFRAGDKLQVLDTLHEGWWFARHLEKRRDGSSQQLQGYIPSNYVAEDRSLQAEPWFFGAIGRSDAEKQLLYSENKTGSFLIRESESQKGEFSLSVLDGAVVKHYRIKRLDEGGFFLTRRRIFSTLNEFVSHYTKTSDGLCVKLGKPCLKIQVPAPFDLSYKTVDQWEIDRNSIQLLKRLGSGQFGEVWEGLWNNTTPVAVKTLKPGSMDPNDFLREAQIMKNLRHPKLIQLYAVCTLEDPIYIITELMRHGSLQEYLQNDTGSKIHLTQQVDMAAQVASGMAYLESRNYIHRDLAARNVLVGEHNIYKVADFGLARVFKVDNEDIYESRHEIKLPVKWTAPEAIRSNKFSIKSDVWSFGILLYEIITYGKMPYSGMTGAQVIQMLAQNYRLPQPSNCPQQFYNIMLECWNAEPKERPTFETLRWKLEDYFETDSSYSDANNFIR
# [33] = biological target: PKCβI(h) (Homo sapiens (Human), UniProt P05771); design: dose or concentration left out as unconfirmed
structure (smiles),measurement,setting,value
"Cc1cc2c(-c3ccc(NC(=O)[C@H](N)CC(C)(C)C)cc3C)ccnc2[nH]1 [Compound F-90, (2R)-2-Amino-4,4-dimethyl-N-[3-methyl-4-(2-methyl-1H-pyrrolo[2,3-b]pyridin-4-yl)phenyl]pentanamide]",% Activity,[1],103%
same,% Activity,[2],88%
same,% Activity,[3],102%
same,% Activity,[4],100%
same,% Activity,[5],85%
same,% Activity,[6],106%
same,% Activity,[7],117%
same,% Activity,[8],97%
same,% Activity,[9],96%
same,% Activity,[10],95%
same,% Activity,[11],134%
same,% Activity,[12],72%
same,% Activity,[13],100%
same,% Activity,[14],100%
same,% Activity,[15],110%
same,% Activity,[16],109%
same,% Activity,[17],66%
same,% Activity,[18],92%
same,% Activity,[19],76%
same,% Activity,[20],101%
same,% Activity,[21],72%
same,% Activity,[22],120%
same,% Activity,[23],94%
same,% Activity,[24],112%
same,% Activity,[25],99%
same,% Activity,[26],118%
same,% Activity,[27],86%
same,% Activity,[28],92%
same,% Activity,[29],102%
same,% Activity,[30],93%
same,% Activity,[31],87%
same,% Activity,[32],90%
same,% Activity,[33],90%
